# Assay results as given in patent publication US20220354894A1, “Cell Composition Comprising Radiolabled Mesenchymal Stem Cells, Use Thereof and Method for Preparing Radiolabeled Mesenchymal Stem Cells” (Boehringer Ingelheim Veterinary Medicine Belgium, priority 2019, published 2022).
# Experiments:
# [1] = Whole body scintigraphy biodistribution after IV, IM, SC injection in dogs (Example 4); type: in vivo; conditions: dog
# Method: Three different studies were performed. In a first study, the biodistribution of intravenously administrated equine peripheral blood-derived MSCs (ePB-MSCs) was evaluated in four dogs. In the second study, the biodistribution of intramuscularly and subcutaneously administrated ePB-MSCs was evaluated in four dogs. Finally, in a third study, the biodistribution of a higher dose of ePB-MSCs following intravenous administration was evaluated in three dogs.
# Four healthy adult research dogs were included in the two first studies; three dogs from the second study were re-used for the third study. All dogs were purpose bred adult beagles (16-23 months). Two males and two females were included in the first two studies and one male and two female dogs were included in the third study. The dogs were housed in groups of 2, in a pen of 4 by 4 by 2 m (L×W×H) so permanent visual, olfactorial, tactile and auditive contact between dogs was possible. Toys were provided for the dogs to play with in their pen. Cleaning of the dog pens was performed daily. The floor was covered with wood shavings to improve lying comfort for the dogs. The animals were let out in dog runs to play and run for minimal 1 hour a day. After the study this minimal time was increased depending on the need of the dogs.
# In the first study, each dog received two intravenous injections; first the dogs were injected with the control product: freshly eluted ^99mTc dissolved in DMEM and at least 7 days later they received a second injection with ^99mTc-labeled ePB-MSCs. For the second study, 4 injections were administered to each dog. The dogs first received an IM injection with the control product, next a SC with the control product, then an IM injection with the ^99mTc-labeled ePB-MSCs and finally a SC administration of the ^99mTc-labeled ePB-MSCs. At least 7 days separated each injection. In the third study, the three dogs received a single IV injection with ^99mTc-labeled ePB-MSCs.
# The dogs were put under general anesthesia and positioned in sternal recumbency on the gamma camera before each injection. To obtain general anesthesia, the dogs were first sedated with dexmedetomidine (12-25 μg/kg IM), next induction was obtained with propofol (dosage on effect) and anesthesia was maintained with isoflurane 1.2-1.4% (on effect) in 100% oxygen following endotracheal intubation. The intravenous injection was administered through a 22-gauge catheter in one of the cephalic veins, the intramuscular injection was performed in the left quadriceps muscle and the subcutaneous injection was administered at the back of the neck.
# A two-headed gamma camera, equipped with low energy high resolution collimators (GCA 7200 A; Toshiba) was used for the scintigraphic investigation. The whole body scan was obtained with the detectors of the SPECT scanner moving simultaneous dorsally and ventrally from head to tail of the dog over 10 minutes. All dogs were kept under general anesthesia during all the acquisitions. For all 3 studies, data collection of the first hour consisted of 6 successive acquisitions of each 10 minutes. The start of the first acquisition was simultaneous with injection of the radioactive compound and the dog remained in the same position for all 6 scans. Next, in the first study, total body scans (each lasting 10 minutes) were performed at 2 h, 4 h, 8 h, 12 h, 24 h and 36 h after placebo control and labeled ePB-MSCs administration using propofol (dosage on effect). For the second and the third study, 6 successive 10 minutes' total body scans performed during the first hour after injection were followed by total body scans (each lasting 10 minutes) at 6 h and 24 h after each injection. For all studies, a syringe with a known amount of radioactivity to calculate % injected dose (ID), was simultaneous scanned with the dog. Care was taken for the dog's re-positioning on the table, to avoid too much spatial deviation on the scans following the first hour scans. […]
# [2] = Planar scintigraphy biodistribution after IV injection in healthy horses (Example 6); type: in vivo; conditions: horse
# Source text: Four healthy adult horses (2 neutered male and 2 female horses, 7 to 19 years old) from two different breeds (2 Belgian warmblood and 2 French Trotter) were included in this study. All animals underwent a full veterinary examination before being included in the study and were stalled at least 2 days prior to the start of the study. During the study, the animals were housed in individual stables of 3.5 by 4 (L×W) according to normal housing procedures with water ad libitum and hay twice a day. During the study, a daily general clinical examination was performed (day 0-3). All horses received a total of two IV injections; the first consisted of free ^99mTc dissolved in DMEM which served as control. The second injection was administered three days later and consisted of ^99mTc-labelled ePB-MSC.
# For the IV injections of the horses, a 18 G catheter was placed in the left jugular vein of each horse and sedation was achieved using detomidine hydrochloride (Domidine 10 mg/mL; Dechra, The Netherlands) 0.01 mg/kg body weight and butorphanol tartrate (butomidor 10 mg/mL; AST farma BV, Oudewater, Germany) 0.01 mg/kg body weight IV When required, detomidine hydrochloride (Domidine 10 mg/mL; Dechra) was added during the scan with a maximum of 0.002 mg/kg. The horses stood straight with all four limbs using a table to stabilize the head. On day 0, all four horses were IV injected with free ^99mTc dissolved in DMEM. Consequently, on day 3, all horses were IV injected with ^99mTc-labelled ePB-MSCs dissolved in DMEM as described above. Planar scintigraphy was performed 1 h and 6 h post-injection for both injections using a gamma camera (Equine HR, Medical Imaging Electronics) (matrix: 128×128; acquisition time: 60 seconds per time frame (60 frames); collimator: low energy high resolution (140 KeV, 15% symmetrical window); field of view: 600×410 mm). Following body parts were scanned: head, thorax and abdomen starting with the head, left thorax and left abdomen and continuing with the right abdomen and right thorax.
# Distribution of the ^99mTc labelled ePB-MSCs and free ^99mTc was subjectively assessed through the whole body using Multimodality software (Nuclear diagnostics, Sweden). Different organs of interests were manually delineated for each horse at each time point: the lungs, bladder, stomach, kidney, parotid gland and thyroid. Radioactive counts per pixel were calculated for each organ of interest, decay corrected and divided by the initial injected radioactivity in the whole body to obtain a relative uptake value.
compound,measurement,setting,value
"[O]=[99Tc](=[O])(=[O])[O-] [control product, ^99mTc Pertechnetate]",percentage of injected dose in right salivary gland,"[1]; IV, 6 hours",0.88%
same,percentage of injected dose in stomach,"[1]; IV, 6 hours",8.98%
same,percentage of injected dose in thyroid,"[1]; IV, 6 hours",0.61%
same,percentage of injected dose in bladder,"[1]; IV, 24 hours",2.71%
same,percentage of injected dose in heart,"[1]; IV, 24 hours",0.54%
same,percentage of injected dose in left salivary gland,"[1]; IV, 24 hours",1.34%
same,percentage of injected dose in liver,"[1]; IV, 24 hours",0.99%
same,percentage of injected dose in lung,"[1]; IV, 24 hours",0.77%
same,percentage of injected dose in right salivary gland,"[1]; IV, 24 hours",0.98%
same,percentage of injected dose in stomach,"[1]; IV, 24 hours",5.02%
same,percentage of injected dose in thyroid,"[1]; IV, 24 hours",0.24%
same,percentage of injected dose at injection site,"[1]; SC, 10 min",27.27%
same,percentage of injected dose in bladder,"[1]; SC, 10 min",0.13%
same,percentage of injected dose in heart,"[1]; SC, 10 min",0.24%
same,percentage of injected dose in left salivary gland,"[1]; SC, 10 min",0.12%
same,percentage of injected dose in lung,"[1]; SC, 10 min",0.92%
same,percentage of injected dose in right salivary gland,"[1]; SC, 10 min",0.13%
same,percentage of injected dose in stomach,"[1]; SC, 10 min",0.53%
same,percentage of injected dose in thyroid,"[1]; SC, 10 min",0.00%
same,percentage of injected dose at injection site,"[1]; SC, 60 min",17.57%
same,percentage of injected dose in bladder,"[1]; SC, 60 min",2.29%
same,percentage of injected dose in heart,"[1]; SC, 60 min",1.61%
same,percentage of injected dose in left salivary gland,"[1]; SC, 60 min",0.45%
same,percentage of injected dose in lung,"[1]; SC, 60 min",4.86%
same,percentage of injected dose in right salivary gland,"[1]; SC, 60 min",0.45%
same,percentage of injected dose in stomach,"[1]; SC, 60 min",9.24%
same,percentage of injected dose in thyroid,"[1]; SC, 60 min",0.00%
same,percentage of injected dose at injection site,"[1]; SC, 6 hours",0.00%
same,percentage of injected dose in bladder,"[1]; SC, 6 hours",2.75%
same,percentage of injected dose in heart,"[1]; SC, 6 hours",1.61%
same,percentage of injected dose in left salivary gland,"[1]; SC, 6 hours",1.44%
same,percentage of injected dose in lung,"[1]; SC, 6 hours",4.57%
same,percentage of injected dose in right salivary gland,"[1]; SC, 6 hours",1.33%
same,percentage of injected dose in stomach,"[1]; SC, 6 hours",14.37%
same,percentage of injected dose in thyroid,"[1]; SC, 6 hours",0.96%
same,percentage of injected dose at injection site,"[1]; SC, 24 hours",0.00%
same,percentage of injected dose in bladder,"[1]; SC, 24 hours",3.75%
same,percentage of injected dose in heart,"[1]; SC, 24 hours",0.70%
same,percentage of injected dose in left salivary gland,"[1]; SC, 24 hours",2.67%
same,percentage of injected dose in lung,"[1]; SC, 24 hours",2.01%
same,percentage of injected dose in right salivary gland,"[1]; SC, 24 hours",2.81%
same,percentage of injected dose in stomach,"[1]; SC, 24 hours",7.32%
same,percentage of injected dose in thyroid,"[1]; SC, 24 hours",0.61%
same,organ with the highest uptake,"[1]; all three injection routes, progressive increase until 4 to 6 hours",stomach
same,organs with radioactivity uptake,[1]; intramuscular and subcutaneous administration,"heart, lung, stomach, bladder, thyroid and salivary glands"
same,organs in which radioactivity accumulated,[1]; intravenous injection,"heart, lung, liver, stomach, bladder, thyroid and salivary glands"
same,radioactivity in the intestines,[2],small activity
same,accumulation in the kidneys,[2]; 1 h and 6 h post-injection,no kidney accumulation
same,accumulation in the stomach,[2]; 1 h and 6 h post-injection,High accumulation
same,radioactivity in the bladder,[2]; 1 h and 6 h post-injection,accumulation was higher
same,uptake in the lungs,[2]; 1 h and 6 h post-injection,distinct radioactive uptake
same,uptake in the parotid glands,[2]; 1 h and 6 h post-injection,high uptake
same,uptake in the thyroid gland,[2]; 1 h and 6 h post-injection,very high accumulation
same,organs in which accumulation was predominantly observed,[2]; 1 h post-injection scans,"stomach, thyroid, bladder and parotid glands"
